Assay results reported in patent US9695155B2, “Herbicidal substituted pyrimidinyloxy benzene compounds” (E. I. DU PONT DE NEMOURS AND COMPANY, priority 2013, dated 2017).

Experiments:
wheat = experiment: Test A postemergence; assay type: in vivo, Triticum aestivum; settings: Triticum aestivum, post-emergence, 240 h
Outline: (§1)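 Compounds in non-phytotoxic solvent with surfactant applied as soil spray preemergence, or postemergence to plants 2-10 cm at one- to two-leaf stage, in loam/sand. After approximately 10 days in greenhouse, injury rated visually versus untreated controls, 0 (no effect) to 100 (complete control).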

wheat, winter = experiment: Test C postemergence; assay type: in vivo, Triticum aestivum; settings: Triticum aestivum, post-emergence
Outline: (§2)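 Greenhouse herbicide screen. Pre: seeded loam/sand, sprayed at planting. Post: 1–4 leaf plants (2–18 cm) in peat-based mix. Formulation: solvent mixture + surfactant, non-phytotoxic. Readout: visual % control vs untreated, 13–15 d; dash = not tested.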

velvetleaf [1] = experiment: Test C postemergence; assay type: in vivo, Abutilon theophrasti; settings: Abutilon theophrasti, post-emergence
Outline: as §2

velvetleaf [2] = experiment: Test A preemergence; assay type: in vivo, Abutilon theophrasti
Outline: as §1

barnyardgrass = experiment: Test C postemergence; assay type: in vivo, Echinochloa crus-galli; settings: Echinochloa crus-galli, post-emergence
Outline: as §2

corn [3] = experiment: Test C preemergence; assay type: in vivo, Zea mays; settings: Zea mays, pre-emergence
Outline: as §2

sedge, umbrella = experiment: Test B flooded paddy test; assay type: in vivo, Cyperus difformis; settings: Cyperus difformis, Flood, 250 g ai/ha; 0 to 100 scale where 0 is no effect and 100 is complete control; read-out: Plant response rating, Sedge, Umbrella
Outline: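 Visual ratings on a 0 to 100 scale, where 100 means complete control, compared treated plants with controls after 13 to 15 days in a greenhouse. Treatment went into paddy water 3 cm deep over the soil, applied to plants at the 2-leaf stage.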

Italian ryegrass = experiment: Test C postemergence; assay type: in vivo, Lolium multiflorum; settings: Lolium multiflorum, post-emergence
Outline: as §2

pigweed = experiment: Test C preemergence; assay type: in vivo, Amaranthus retroflexus; settings: Amaranthus retroflexus, pre-emergence
Outline: as §2

lambsquarters = experiment: Test C postemergence; assay type: in vivo, Chenopodium album; settings: Chenopodium album, post-emergence
Outline: as §2

blackgrass = experiment: Test C preemergence; assay type: in vivo, Alopecurus myosuroides; settings: Alopecurus myosuroides, pre-emergence
Outline: as §2

velvetleaf [4] = experiment: Test C preemergence; assay type: in vivo, Abutilon theophrasti; settings: Abutilon theophrasti, pre-emergence
Outline: as §2

corn [5] = experiment: Test A preemergence; assay type: in vivo, Zea mays; settings: Zea mays, pre-emergence, 240 h
Outline: as §1

galium = experiment: Test C postemergence; assay type: in vivo, Galium aparine; settings: Galium, post-emergence
Outline: as §2

oilseed rape = experiment: Test C postemergence; assay type: in vivo, Brassica napus; settings: Brassica napus, post-emergence
Outline: as §2

[6] = 125 g ai/ha, 0 to 100 scale where 0 is no effect and 100 is complete control

Work on `N#Cc1cccc(Oc2ncc(Cl)cn2)c1-n1cc(C(F)(F)F)cn1` [Compound 58, 3-[(5-chloro-2-pyrimidinyl)oxy]-2-[4-(trifluoromethyl)-1H-pyrazol-1-yl]benzonitrile] yielded a plant injury at 125 g/ha (wheat; 125 g ai/ha, 0 to 100 scale where 0 is no effect and 100 is complete control, read-out: Plant response rating, Wheat) of 90%, a plant injury at 500 g/ha (wheat; 500 g ai/ha, 0 to 100 scale, 0 no effect, 100 complete control, read-out: Plant response rating Wheat) of 100% and a plant injury at 125 g/ha (wheat, winter; 125 g ai/ha, postemergence, read-out: Plant response rating (0 to 100), Wheat) of 25%. For the same compound, the plant injury at 250 g/ha (wheat, winter; 250 g ai/ha, postemergence, read-out: Plant response rating (0 to 100), Wheat) was 30%, the plant injury at 31 g/ha (wheat, winter; Postemergence, 31 g ai/ha, scale 0 to 100 (0 no effect, 100 complete control), 13 to 15 days, read-out: Plant response rating, Wheat) was 10% and the plant injury at 62 g/ha (wheat, winter; Postemergence, 62 g ai/ha, scale 0 to 100 (0 no effect, 100 complete control), read-out: Plant response rating, Wheat) was 15%. It also gave a pest or weed control at 125 g/ha (velvetleaf [1]; 125 g ai/ha, postemergence, read-out: Plant response rating (0 to 100), Velvetleaf) of 60%, a pest or weed control at 250 g/ha (velvetleaf [1]; 250 g ai/ha, postemergence, read-out: Plant response rating (0 to 100), Velvetleaf) of 85% and a pest or weed control at 31 g/ha (velvetleaf [1]; Postemergence, 31 g ai/ha, scale 0 to 100 (0 no effect, 100 complete control), 13 to 15 days, read-out: Plant response rating, Velvetleaf) of 45%. The pest or weed control at 62 g/ha (velvetleaf [1]; Postemergence, 62 g ai/ha, scale 0 to 100 (0 no effect, 100 complete control), read-out: Plant response rating, Velvetleaf) was 50%, the “Plant response rating, Velvetleaf” value (velvetleaf [2]; [6]) was 90 and the pest or weed control at 500 g/ha (velvetleaf [2]; Abutilon theophrasti, pre-emergence, 240 h, 500 g ai/ha, 0 to 100 scale, 0 no effect, 100 complete control, approx. 10 days, read-out: Velvetleaf plant response rating) was 100%. For the same compound, the pest or weed control at 125 g/ha (barnyardgrass; 125 g ai/ha, postemergence, read-out: Plant response rating (0 to 100), Barnyardgrass) was 15%, the pest or weed control at 250 g/ha (barnyardgrass; 250 g ai/ha, postemergence, read-out: Plant response rating (0 to 100), Barnyardgrass) was 75% and the pest or weed control at 31 g/ha (barnyardgrass; Postemergence, 31 g ai/ha, scale 0 to 100 (0 no effect, 100 complete control), 13 to 15 days, read-out: Plant response rating, Barnyardgrass) was 5%. The pest or weed control at 62 g/ha (barnyardgrass; Postemergence, 62 g ai/ha, scale 0 to 100 (0 no effect, 100 complete control), read-out: Plant response rating, Barnyardgrass) was 5%, the plant injury at 62 g/ha (corn [3]; 62 g ai/ha, preemergence, scale 0 (no effect) to 100 (complete control), read-out: Corn plant response rating) was 90% and the plant injury at 125 g/ha (corn [3]; 125 g ai/ha, preemergence, scale 0 (no effect) to 100 (complete control), read-out: Corn plant response rating) was 98%. The plant injury at 250 g/ha (corn [3]; 250 g ai/ha, preemergence, scale 0 (no effect) to 100 (complete control), read-out: Corn plant response rating) was 98%, the Corn plant response rating (crop injury, 0 = no effect, 100 = complete kill) at 31 g/ha (corn [3]; Preemergence, 31 g ai/ha, scale 0 to 100, 0 no effect, 100 complete control) was 60% and the pest or weed control at 250 g/ha (sedge, umbrella) was 90%. The pest or weed control at 125 g/ha (Italian ryegrass; 125 g ai/ha, postemergence, read-out: Plant response rating (0 to 100), Ryegrass, Italian) was 10%, the pest or weed control at 250 g/ha (Italian ryegrass; 250 g ai/ha, postemergence, read-out: Plant response rating (0 to 100), Ryegrass, Italian) was 35% and the pest or weed control at 31 g/ha (Italian ryegrass; Postemergence, 31 g ai/ha, scale 0 to 100 (0 no effect, 100 complete control), 13 to 15 days, read-out: Plant response rating, Ryegrass, Italian) was 5%. The pest or weed control at 62 g/ha (Italian ryegrass; Postemergence, 62 g ai/ha, scale 0 to 100 (0 no effect, 100 complete control), read-out: Plant response rating, Ryegrass, Italian) was 5%, the pest or weed control at 62 g/ha (pigweed; 62 g ai/ha, preemergence, scale 0 (no effect) to 100 (complete control), read-out: Pigweed plant response rating) was 100% and the pest or weed control at 125 g/ha (pigweed; 125 g ai/ha, preemergence, scale 0 (no effect) to 100 (complete control), read-out: Pigweed plant response rating) was 100%. It also gave a pest or weed control at 250 g/ha (pigweed; 250 g ai/ha, preemergence, scale 0 (no effect) to 100 (complete control), read-out: Pigweed plant response rating) of 100%, a pest or weed control at 31 g/ha (pigweed; Preemergence, 31 g ai/ha, scale 0 to 100, 0 no effect, 100 complete control, read-out: Plant response rating, Pigweed) of 100% and a pest or weed control at 125 g/ha (lambsquarters; 125 g ai/ha, postemergence, read-out: Plant response rating (0 to 100), Lambsquarters) of 98%. It also gave a pest or weed control at 250 g/ha (lambsquarters; 250 g ai/ha, postemergence, read-out: Plant response rating (0 to 100), Lambsquarters) of 98%, a pest or weed control at 31 g/ha (lambsquarters; Postemergence, 31 g ai/ha, scale 0 to 100 (0 no effect, 100 complete control), 13 to 15 days, read-out: Plant response rating, Lambsquarters) of 75% and a pest or weed control at 62 g/ha (lambsquarters; Postemergence, 62 g ai/ha, scale 0 to 100 (0 no effect, 100 complete control), read-out: Plant response rating, Lambsquarters) of 90%. It also gave a pest or weed control at 62 g/ha (blackgrass; 62 g ai/ha, preemergence, scale 0 (no effect) to 100 (complete control), read-out: Blackgrass plant response rating) of 90%, a pest or weed control at 125 g/ha (blackgrass; 125 g ai/ha, preemergence, scale 0 (no effect) to 100 (complete control), read-out: Blackgrass plant response rating) of 90% and a pest or weed control at 250 g/ha (blackgrass; 250 g ai/ha, preemergence, scale 0 (no effect) to 100 (complete control), read-out: Blackgrass plant response rating) of 90%. It also gave a pest or weed control at 31 g/ha (blackgrass; Preemergence, 31 g ai/ha, scale 0 to 100, 0 no effect, 100 complete control, read-out: Plant response rating, Blackgrass) of 90%, a pest or weed control at 62 g/ha (velvetleaf [4]; 62 g ai/ha, preemergence, scale 0 (no effect) to 100 (complete control), read-out: Velvetleaf plant response rating) of 100% and a pest or weed control at 125 g/ha (velvetleaf [4]; 125 g ai/ha, preemergence, scale 0 (no effect) to 100 (complete control), read-out: Velvetleaf plant response rating) of 100%. It also gave a pest or weed control at 250 g/ha (velvetleaf [4]; 250 g ai/ha, preemergence, scale 0 (no effect) to 100 (complete control), read-out: Velvetleaf plant response rating) of 100%, a pest or weed control at 31 g/ha (velvetleaf [4]; Preemergence, 31 g ai/ha, scale 0 to 100, 0 no effect, 100 complete control, read-out: Plant response rating, Velvetleaf) of 100% and a Corn plant response rating (crop injury, 0 = no effect, 100 = complete kill) at 125 g/ha (corn [5]; [6]) of 40%. For the same compound, the plant injury at 500 g/ha (corn [5]; 500 g ai/ha, 0 to 100 scale, 0 no effect, 100 complete control, approx. 10 days, read-out: Corn plant response rating) was 70%, the pest or weed control at 125 g/ha (galium; 125 g ai/ha, postemergence, read-out: Plant response rating (0 to 100), Galium) was 85% and the pest or weed control at 250 g/ha (galium; 250 g ai/ha, postemergence, read-out: Plant response rating (0 to 100), Galium) was 95%. It also gave a pest or weed control at 31 g/ha (galium; Postemergence, 31 g ai/ha, scale 0 to 100 (0 no effect, 100 complete control), 13 to 15 days, read-out: Plant response rating, Galium) of 60%, a pest or weed control at 62 g/ha (galium; Postemergence, 62 g ai/ha, scale 0 to 100 (0 no effect, 100 complete control), read-out: Plant response rating, Galium) of 70% and a plant injury at 125 g/ha (oilseed rape; 125 g ai/ha, postemergence, read-out: Plant response rating (0 to 100), Oilseed Rape) of 85%. It also gave a plant injury at 250 g/ha (oilseed rape; 250 g ai/ha, postemergence, read-out: Plant response rating (0 to 100), Oilseed Rape) of 85%, a plant injury at 31 g/ha (oilseed rape; Postemergence, 31 g ai/ha, scale 0 to 100 (0 no effect, 100 complete control), 13 to 15 days, read-out: Plant response rating, Oilseed Rape) of 60% and a plant injury at 62 g/ha (oilseed rape; Postemergence, 62 g ai/ha, scale 0 to 100 (0 no effect, 100 complete control), read-out: Plant response rating, Oilseed Rape) of 70%.
